In PMC9289467, “A Novel Multifunctional 5,6-Dimethoxy-Indanone-Chalcone-Carbamate Hybrids Alleviates Cognitive Decline in Alzheimer’s Disease by Dual Inhibition of Acetylcholinesterase and Inflammation” (Frontiers in Aging Neuroscience, 2022):

Assays:
[1] = tested on: spatial recognition memory; experiment: Y-maze; format: in vivo; details: after training for 3 h, relative to APP/PS1 mice
Experimental: (§1) APP/PS1 mice of ages 6 months were randomly divided into vehicle (APP/PS1, n = 10) and treatment groups (AP5, n = 10), which were intragastrically administered with AP5 (40 mg/kg) once daily for consecutive 5 months. AP5 was dissolved in distilled water containing 1% sodium carboxymethyl cellulose.
(§2) To investigate whether AP5 treatment plays a key role in cognition improvement of APP/PS1 mice models, the five different behavioral tests were sequentially carried out in the following order: open field, novel object recognition task, spatial object-location task, Y-maze, and Morris water maze (MWM). AP5 was also administered daily during the test periods. […]
(§3) For the spatial object location task (an object moved to a new location), mice first explored the two objects placed in two corners of the open field for 5 min in training period. After 1 h or 24 h, the mice received a 5 min retention trial with a new spatial configuration with an object moved from one corner to the opposite corner of the open field.The discrimination index was calculated and defined as: (time spent exploring the displaced object-time spent exploring nondisplaced objects) / total exploration time for the two objects during the 5 min retention trial. […]
(§4) guided to platform and allowed to stay on it for 30 s. The time (escape latency) for each mouse to find the way and reach the target platform was analyzed. […]

recognition memory [2] = experiment: Spatial object location task; format: in vivo; details: at 24 h, vs APP/PS1 mice without treatment
Experimental: as §1, §2, §3, §4

recognition memory [3] = experiment: Novel object recognition task; format: in vivo, APP/PS1 mice
Experimental: as §1, §2
(§5) To study the kinetics of Aβ-AChE fibril complex formation, 10 μM Aβ was mixed with AChE (R005282, Roche, Basel, Switzerland) and different concentrations AP5 and incubated with 10 μM ThT and 50 mM glycine-NaOH (pH 8.5) at 37°C, the ThT fluorescence was continually measured for 24 h at 30 min intervals. […] Fluorescence emission at485 nm was measured on a Spectra MAX GeminiXS fluorometerat an excitation wavelength of 450 nm. […]
To assess locomotor activity, mice were individually tested in an open-field box (38 cm × 38 cm × 25 cm). The movement of the mouse was tracked for 5 min with open fieldvideo analysis system, and the total move distances was automatically recorded as adirect measure of locomotor activity. […]

[4] = target: T1, pre-formed Aβ42-AChE fibrils complex (Homo sapiens, UniProt P22303); experiment: Disaggregation of pre-formed Aβ42-AChE fibrils (ThT); format: biochemical; details: Aβ42 pre-aggregated with AChE for 2 days before co-incubation with AP5
T1 construct: purchased Roche (AChE); Aladdin (Aβ42) R005282 (AChE); A118755 (Aβ42)
T1 sequence (P22303 32-614, one chain of several): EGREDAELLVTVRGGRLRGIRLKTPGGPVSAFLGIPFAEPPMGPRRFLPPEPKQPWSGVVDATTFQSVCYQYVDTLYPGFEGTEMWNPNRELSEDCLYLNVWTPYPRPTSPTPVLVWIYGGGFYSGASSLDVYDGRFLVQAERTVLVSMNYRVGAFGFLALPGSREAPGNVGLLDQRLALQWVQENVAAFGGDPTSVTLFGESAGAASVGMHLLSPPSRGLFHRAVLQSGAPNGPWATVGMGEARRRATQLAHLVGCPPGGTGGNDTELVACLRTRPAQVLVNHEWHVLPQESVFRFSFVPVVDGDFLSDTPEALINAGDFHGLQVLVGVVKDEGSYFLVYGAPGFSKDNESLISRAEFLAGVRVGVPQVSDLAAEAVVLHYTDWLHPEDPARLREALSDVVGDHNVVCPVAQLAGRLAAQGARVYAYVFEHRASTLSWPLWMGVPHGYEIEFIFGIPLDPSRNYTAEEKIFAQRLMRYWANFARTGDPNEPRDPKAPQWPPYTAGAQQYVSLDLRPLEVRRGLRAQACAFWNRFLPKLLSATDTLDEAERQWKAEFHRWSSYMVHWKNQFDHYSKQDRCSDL
Experimental: (§6) The effects of AP5 on Aβ fibril formation and pre-formed Aβ fibrils disaggregation were determined using a previously described method of Thioflavin T (ThT, T3516, Sigma Aldrich, St. Louis, MO, United States) fluorometry ([Jan et al., 2010]).
(§7) Supplementary materials and methods … ...1 […]
(§8) Supplementary Figure 1 … .....7
(§9) Supplementary Figure 2 … .....7
(§10) Supplementary materials and methods
(§11) Prepations ofspecimen for pharmacokinetics analysis
(§12) 24 h afterdosing. Brains were collected at0, 0.25, 0.5,2, 4,8 and 24 h after administration.Plasma extractions were performed by adding 90 μL methanol and 2 μL internalstandard letrozole (500 ng/mL) to a30 µL plasma sample. […]
(§13) Then 90 μL methanol and 2 μL letrozolewere added to 30 µl brainhomogenates. The samples were vortexed for 3 min and centrifuged 15 min at25,000 g.The plasma and brainhomogenate were analyzed by UPLC-TSQ/MS (Thermo Fisher Scientific, Waltham, MA, USA). […]
as §5

[5] = target: T2, pre-formed Aβ40-AChE fibrils complex (Homo sapiens, UniProt P22303); experiment: Disaggregation of pre-formed Aβ40-AChE fibrils (ThT); format: biochemical; details: Aβ40 pre-aggregated with AChE for 2 days before co-incubation with AP5
T2 construct: purchased Roche (AChE); Invitrogen (Aβ40) R005282 (AChE); 03-136 (Aβ40)
T2 sequence (P22303 32-614, one chain of several): as above
Experimental: as §6, §7, §8, §9, §10, §11, §12, §13, §5

For `CCN(C)C(=O)Oc1cccc(/C=C2\Cc3cc(OC)c(OC)cc3C2=O)c1` [AP5, (E)-3-((5,6-dimethoxy-1-oxo-1,3-dihydro-2H-inden-2-ylidene)-methyl)phenylethyl(methyl)carbamate], the preference index [1] was “marked elevation”, the “discrimination index, spatial object location” value (recognition memory [2]) was “significantly better” and the “discrimination index, novel object recognition” value (recognition memory [3]; at 1 h, vs APP/PS1 mice) was “significantly higher”. For the same compound, the “discrimination index, novel object recognition” value (recognition memory [3]; at 24 h, vs APP/PS1 mice without treatment) was “significantly better”, the “ThT fluorescence intensity, disaggregation of pre-formed Aβ42 fibrils” value [4] was “marked decline of ThT fluorescence intensity” and the “ThT fluorescence intensity, disaggregation of pre-formed Aβ40 fibrils” value [5] was “marked decline of ThT fluorescence intensity”.
